In one data set the test system is 3T3-L1. The data set can be described thus: Anti-adipogenic activity in mouse 3T3-L1 preadipocytes assessed as decrease in adipocyte numbers at 20 uM measured after 7 days by Oil Red O staining based inverted phase contrast microscopic analysis. As to conditions: time 7.0 day. It counts as functional, cell-based.
For data set [1], the system named is Mesenchymal stem cells. The data set can be described thus: Anti-adipogenic activity in human derived bone marrow mesenchymal stem cells assessed as glycerol release at 20 uM incubated for 12 hrs by colorimetric analysis relative to control. It counts as functional.
Data set [2] relates to Mesenchymal stem cells. The data set can be described thus: Anti-adipogenic activity against human bone marrow derived Mesenchymal stem cells assessed as downregulation of C/EBPbeta mRNA expression at 20 uM measured after 7 days by qRT-PCR analysis. It counts as functional, cell-based. As to conditions: time 7.0 day. In general terms: Real-time PCR tracks product formation cycle by cycle.

Data set [3] relates to Mesenchymal stem cells. The data set can be described thus: Anti-adipogenic activity in human bone marrow derived Mesenchymal stem cells assessed as reduction in adipocyte count at 5 to 20 uM after 21 days by Oil Red O staining based inverted phase contrast microscopic analysis. It counts as functional, cell-based. As to conditions: dose 5-20 µM, time 21.0 day.
Data set [4] has as its system Mesenchymal stem cells. The data set can be described thus: Upregulation of adiponectin level in human bone marrow derived mesenchymal stem cells at 5 to 20 uM measured after 48 hrs by flow cytometric analysis. As to conditions: dose 5-20 µM. It counts as functional, cell-based.
For data set [5], the system named is Mesenchymal stem cells. The data set can be described thus: Anti-adipogenic activity in human derived bone marrow mesenchymal stem cells assessed as reduction in adiponectin release measured after 21 days by flow cytometry analysis. As to conditions: time 21.0 day. It counts as functional, cell-based. (In general: Flow cytometry measures light scatter and fluorescence of single cells or particles in a stream.)

The test system of data set [6] is Mesenchymal stem cells. The data set can be described thus: Inhibition of lipid droplet accumulation in human bone marrow derived Mesenchymal stem cells at 10 to 20 uM by Oil red o staining based microplate reader analysis. It counts as functional, cell-based. As to conditions: dose 10-20 µM.
The test system of data set [7] is Mesenchymal stem cells. The data set can be described thus: Anti-adipogenic activity against human bone marrow derived Mesenchymal stem cells assessed as downregulation of C/EBPalpha mRNA expression at 20 uM measured after 7 days by qRT-PCR analysis. It counts as functional, cell-based. As to conditions: time 7.0 day.
For data set [8], the system named is Mesenchymal stem cells. The data set can be described thus: Upregulation of adipsin level in human bone marrow derived mesenchymal stem cells at 5 to 20 uM measured after 48 hrs by flow cytometric analysis. It counts as functional, cell-based. As to conditions: dose 5-20 µM.
The subject of data set [9] is Mesenchymal stem cells. The data set can be described thus: Antidiabetic activity in human bone marrow mesenchymal stem cells assessed as glucose uptake by measuring 2-DG6P level at 15 to 20 uM by glucose uptake assay. It counts as functional, cell-based. As to conditions: dose 15-20 µM.
Data set [10] has as its system Mesenchymal stem cells. The data set can be described thus: Downregulation of IL8 level in human bone marrow derived mesenchymal stem cells at 5 to 20 uM measured after 48 hrs by flow cytometric analysis. As to conditions: dose 5-20 µM. It counts as functional, cell-based.
Data set [11] has as its system Mesenchymal stem cells. The data set can be described thus: Anti-adipogenic activity in human derived bone marrow mesenchymal cells assessed as downregulation of FABP4 mRNA expression at 10 to 20 uM measured on day 21 by qRT-PCR analysis. As to conditions: dose 10-20 µM, time 21.0 day. It counts as functional, cell-based.
Data set [12] concerns Mesenchymal stem cells. The data set can be described thus: Anti-adipogenic activity in human derived bone marrow mesenchymal stem cells assessed as reduction in […] release measured after 21 days by flow cytometry analysis. It counts as functional, cell-based. As to conditions: time 21.0 day.
Data set [13] has as its system Mesenchymal stem cells. The data set can be described thus: Anti-adipogenic activity in human derived bone marrow derived Mesenchymal stem cells assessed as reduction in PPARgamma expression at 20 uM measured after 7 days by Western blot analysis. It counts as functional, cell-based. As to conditions: time 7.0 day.
Data set [14] has as its system Mesenchymal stem cells. The data set can be described thus: Downregulation of IL6 level in human bone marrow derived mesenchymal stem cells at 5 to 20 uM measured after 48 hrs by flow cytometric analysis. It counts as functional, cell-based. As to conditions: dose 5-20 µM.
The test system of data set [15] is Mesenchymal stem cells. The data set can be described thus: Downregulation of RBP4 level in human bone marrow derived mesenchymal stem cells at 5 to 20 uM measured after 48 hrs by flow cytometric analysis. As to conditions: dose 5-20 µM. It counts as functional, cell-based.
For data set [16], the system named is Mesenchymal stem cells. The data set can be described thus: Anti-adipogenic activity in human derived bone marrow derived Mesenchymal stem cells assessed as downregulation of C/EBPalpha protein expression at 20 uM measured after 7 days by western blot analysis. It counts as functional, cell-based. As to conditions: time 7.0 day.
The test system of data set [17] is Mesenchymal stem cells. The data set can be described thus: Anti-adipogenic activity against human bone marrow derived Mesenchymal stem cells assessed as downregulation of SREBP-1c mRNA expression at 20 uM measured after 7 days by qRT-PCR analysis. It counts as functional, cell-based. As to conditions: time 7.0 day.
Data set [18] deals with Mesenchymal stem cells. The data set can be described thus: Cytotoxicity against human bone marrow derived Mesenchymal stem cells assessed as reduction in cell viability at 1 to 20 uM incubated for 1 to 10 days by MTT assay. It counts as toxicity, cell-based. As to conditions: dose lower 1 µM, time lower 1 day, dose upper 20 µM, time upper 10 day. On the technique in general: Tetrazolium assays rely on reduction of a dye to a coloured formazan, in cell work by metabolically active cells.

The subject of data set [19] is Mesenchymal stem cells. The data set can be described thus: Anti-adipogenic activity against human bone marrow derived Mesenchymal stem cells assessed as downregulation of PPARG mRNA expression at 20 uM measured after 7 days by qRT-PCR analysis. It counts as functional, cell-based. As to conditions: time 7.0 day.
Data set [20] has as its system Mesenchymal stem cells. The data set can be described thus: Downregulation of MCP-1 level in human bone marrow derived mesenchymal stem cells at 5 to 20 uM measured after 48 hrs by flow cytometric analysis. It counts as functional, cell-based. As to conditions: dose 5-20 µM.
The test system of data set [21] is Mesenchymal stem cells. The data set can be described thus: Anti-adipogenic activity in human derived bone marrow mesenchymal cells assessed as downregulation of GLUT4 mRNA expression at 10 to 20 uM measured on day 21 by qRT-PCR analysis. It counts as functional, cell-based. As to conditions: dose 10-20 µM, time 21.0 day.
In data set [22] the test system is Mesenchymal stem cells. The data set can be described thus: Anti-adipogenic activity in human derived bone marrow mesenchymal stem cells assessed as reduction in adipsin release measured after 21 days by flow cytometry analysis. It counts as functional, cell-based. As to conditions: time 21.0 day.
In data set [23] the test system is Mesenchymal stem cells. The data set can be described thus: Anti-adipogenic activity in human derived bone marrow mesenchymal stem cells assessed as glycerol release at 10 uM incubated for 12 hrs by colorimetric analysis relative to control. It counts as functional.
For data set [24], the system named is Mesenchymal stem cells. The data set can be described thus: Anti-adipogenic activity in human derived bone marrow mesenchymal cells assessed as downregulation of LPL mRNA expression at 10 to 20 uM measured on day 21 by qRT-PCR analysis. It counts as functional, cell-based. As to conditions: dose 10-20 µM, time 21.0 day.
Data set [25] concerns Mesenchymal stem cells. The data set can be described thus: Anti-adipogenic activity in human derived bone marrow mesenchymal stem cells assessed as glycerol release at 5 uM incubated for 12 hrs by colorimetric analysis relative to control. It counts as functional.
Data set [26] deals with Mesenchymal stem cells. The data set can be described thus: Inhibition of lipid droplet accumulation in human bone marrow derived Mesenchymal stem cells at 5 to 20 uM incubated for 21 days by Oil red o staining based microplate reader analysis. It counts as functional, cell-based. As to conditions: dose 5-20 µM, time 21.0 day.

SMILES strings stand for the structures. Activity calls are given as the source filed them. No cut-off for these calls is given here.

For the compound `COC(=O)C1=CO[C@@H](OC)[C@@H]2C(Cn3cc(C4(O)CCCCC4)nn3)=CC[C@H]12`, the result with 3T3-L1 was Active.
For the compound `COC(=O)C1=CO[C@@H](OC)[C@@H]2C(Cn3cc(COc4ccc5ccc(=O)oc5c4)nn3)=CC[C@H]12`, the outcome in the data set on 3T3-L1 was Active.
Same read-out and setting: in the case of `CCCCCCCCCCCCCCCCCCOCc1cn(CC2=CC[C@@H]3C(C(=O)OC)=CO[C@@H](OC)[C@H]23)nn1` it was “Active”.
The same measure, in the same setting: the same measure for `COC(=O)C1=CO[C@@H](OC)[C@@H]2C(Cn3cc(C(O)(c4ccccc4)c4ccccc4)nn3)=CC[C@H]12`: “Active”.
As for `COC(=O)C1=CO[C@@H](OC)[C@@H]2C(Cn3cc(COCCc4ccccc4)nn3)=CC[C@H]12`, the result with 3T3-L1 was Active.
Same read-out and setting: in the case of `COC(=O)C1=CO[C@@H](OC)[C@@H]2C(Cn3cc(COCc4ccc(OC)c(OC)c4)nn3)=CC[C@H]12` it was “Active”.
`COC(=O)C1=CO[C@@H](OC)[C@@H]2C(Cn3cc(CCCOC(c4ccccc4)(c4ccccc4)c4ccccc4)nn3)=CC[C@H]12`: the Activity with Mesenchymal stem cells [1] is 33%; in the data set with Mesenchymal stem cells [18], “Non-Toxic”; in the data set with Mesenchymal stem cells [23], 25%; in the data set on Mesenchymal stem cells [25], 17%. In addition, the result in the data set with Mesenchymal stem cells [2], with Mesenchymal stem cells [3], in the data set with Mesenchymal stem cells [4], with Mesenchymal stem cells [5], in the data set on Mesenchymal stem cells [7] and in the data set on Mesenchymal stem cells [8] was Active. The outcome with Mesenchymal stem cells [9], with Mesenchymal stem cells [10], with Mesenchymal stem cells [11], in the data set on Mesenchymal stem cells [12], in the data set with Mesenchymal stem cells [13] and in the data set on Mesenchymal stem cells [14] was Active. Moreover, the outcome with Mesenchymal stem cells [15], with Mesenchymal stem cells [16], with 3T3-L1, with Mesenchymal stem cells [17], in the data set with Mesenchymal stem cells [19] and in the data set with Mesenchymal stem cells [20] was Active. Besides, the result in the data set with Mesenchymal stem cells [21], in the data set with Mesenchymal stem cells [22] and in the data set with Mesenchymal stem cells [24] was Active. Further, the inhibition result in the data set with Mesenchymal stem cells [6] and in the data set with Mesenchymal stem cells [26] was “Active” throughout.
For the compound `COC(=O)C1=CO[C@@H](OC)[C@@H]2C(Cn3cc(COCc4ccccc4)nn3)=CC[C@H]12`, in the data set on 3T3-L1, the result was Active.
Still for that read-out and setting: the same measure for `COC(=O)C1=CO[C@@H](O)[C@@H]2C(CO)=CC[C@H]12`: “Active”.
On the same count and under the same terms, the same measure for `COC(=O)C1=CO[C@@H](OC)[C@@H]2C(Cn3cc(CCBr)nn3)=CC[C@H]12`: “Active”.
The same measure, in the same setting: the same measure for `COC(=O)C1=CO[C@@H](OC)[C@@H]2C(Cn3cc(-c4ccccc4)nn3)=CC[C@H]12`: “Active”; for `COC(=O)C1=CO[C@@H](OC)[C@@H]2C(Cn3cc(COc4cc(C=O)ccc4OC)nn3)=CC[C@H]12`: “Active”.
`COC(=O)C1=CO[C@@H](OC)[C@@H]2C(Cn3cc(COCc4cc(OC)ccc4OC)nn3)=CC[C@H]12`: the result in the data set with 3T3-L1 was Active.

The values above are taken from ChEMBL document CHEMBL5316364, “Genipin Analogue (G300) Inhibits Adipogenic Differentiation of Human Bone Marrow-Derived Mesenchymal Stem Cells through the Suppression of Adipogenic Promoting Factors” (J Nat Prod, 2023).
